Assay results reported in PMC11466185, “Mechanisms and efficacy of small molecule latency-promoting agents to inhibit HIV reactivation ex vivo” (JCI Insight, 2024).
Where “and” joins values, the source holds several entries; their conditions need not be identical. Equal entries are not always repeated.

Tests used:
PBMCs = assay: Total number of live cells (proliferation) by trypan blue staining at day 6; type: cell-based, human; conditions: for Total live cell numbers (proliferation) compared with activated DMSO (in words) / Total number of live cells (Fig 6A): day 6; for Total live cell numbers (proliferation) compared with activated DMSO (in words): Figure 6A; for Fig 6B: total live cells relative to DMSO+CD3/28: DMSO+CD3/28 = 100
Procedure: Some of our candidate LPAs can block the effects of T cell activation, which could affect T cell proliferation. Therefore, we evaluated the extent to which variations in the level of infected cells may contribute to reductions in different HIV RNA transcripts. We measured the total number of viable cells (as a measure of proliferation) and the conserved U3-U5 LTR HIV DNA region (as a measure of total infection frequency) at day 6.
(A) After 6 days, the total number of live cells was measured by trypan blue staining and then normalized to the levels of the activated DMSO (% of activated DMSO). All conditions were tested in the presence of CD3^+/CD28^+ T cell–activating beads, except for the unactivated DMSO condition. Bars indicate medians, and different colors indicate individual study participants. Comparisons were performed using Wilcoxon’s signed-rank test. (B) Total cellular DNA was extracted, and the levels of U3-U5 HIV DNA were measured to quantify infection frequency at 6 days. HIV DNA levels were normalized to copies per 10^6 cells using the input of cellular DNA (assuming 1 μg of total DNA corresponds to 160,000 cells) and then normalized to the activated DMSO control (% of activated DMSO). Bars indicate medians, and different colors indicate individual study participants.

[1] = test system: HIV transcripts (TAR, LLTR, Pol, PolyA, TatRev); assay: Cell-associated HIV transcripts (RT-ddPCR) 6 days after anti-CD3/CD28 activation of PBMCs from ART-suppressed PWH; type: cell-based; conditions: for Pol / PolyA / TAR / TatRev: DMSO αCD3/28 = 100, Fig 4A; for LLTR/TAR / PolyA/LLTR / TatRev/PolyA: DMSO+CD3/28 = 1, Fig 4B, C and D
Procedure: Next, we evaluated the ability of the candidate LPAs to sustain the inhibitory effects during a prolonged ex vivo culture. To this end, PBMCs were cultured in the presence of individual drugs in DMSO or in DMSO alone as control, activated (anti-CD3/CD28), and harvested after 6 days. […] However, we decided to test the drug on day 6 because extra cells were available from some study participants.
Each drug was tested in PBMCs from at least 6 ART-suppressed study participants (except for KRIBB11, n = 5). PBMCs were aliquoted into wells at 6 × 10^6 cells/well. After activation, the cells were cultured with antiretrovirals in the presence of individual drugs in DMSO or DMSO alone as control. All conditions were tested in the presence of CD3/28 T cell–activating beads, except for the unactivated DMSO condition. After 6 days, total cellular RNA was extracted, and the progression through different stages of HIV transcription was quantified by measuring the levels of initiated (TAR), 5′ elongated (LLTR), midtranscribed/unspliced (Pol), completed (PolyA), and multiply spliced (TatRev) HIV transcripts. (A) The levels of all HIV transcripts were normalized to 1 μg of total cellular RNA and expressed as a percentage of the activated DMSO control (% of activated DMSO). Medians are shown as well as the individual values per study participant in different colors. (B–D) The effect of each drug on HIV transcriptional progression after activation was analyzed by the ratio of one HIV transcript to another. Ratios are independent of HIV infection frequency or normalization to cell numbers. Shown are the proportion of (B) all HIV transcripts that are elongated (LLTR/TAR), (C) elongated HIV transcripts that are completed (PolyA/LLTR), and (D) completed transcripts that are multiply spliced (TatRev/PolyA). Medians and IQR are presented, along with the individual values per study participant in different colors. P values were calculated using Wilcoxon’s signed-rank test: *P < 0.05.
PBMCs were isolated from fresh venous blood from 16 ART-suppressed HIV-infected study participants using Ficoll density gradient centrifugation. The cells were seeded at 6 × 10^6 cells/well and cultured with antiretrovirals (nevirapine and indinavir) to prevent new infection. On the next day, PBMCs were activated with anti-CD3/CD28–coated beads (Invitrogen) in the presence of 20 U/mL IL-2 and individual drugs in DMSO or DMSO alone as a control. Since we were limited in the PBMC yield per study participant, different study participants were used for different experiments (such as the initial screen, dose response, different time points, and studies in activated vs. unstimulated cells). In addition, the yields of PBMCs were sometimes insufficient to test all drugs for a given question or experiment.
For quantification of cell-associated HIV transcripts, PBMCs were harvested either after 24 hours or after 6 days. The cell viabilities were measured by trypan blue staining; then the cells were pelleted by centrifuging at 300g for 6 minutes and stored at –80°C. For quantification of virion-associated HIV RNA, cell culture supernatant was collected from 6 × 10^6 PBMCs that were treated and activated for 6 days as described above. Residual cells and cellular debris were subsequently removed from the supernatant by differential centrifugation (300g for 6 minutes, then 20,000g for 10 minutes), and the supernatant was stored at –80°C.
Total cellular DNA and RNA were extracted in parallel using Trireagent (Molecular Research Center) according to the manufacturer’s instructions, except for study participants 2147 and 2461 (Figure 4), for whom DNA and RNA were extracted using the QIAGEN AllPrep DNA/RNA/miRNA Universal Kit with on-column DNase I treatment of the RNA and the manufacturer’s modification to enhance recovery of short transcripts.

## CNc1ccc([N+](=O)[O-])c(Nc2ccc3[nH]ncc3c2)n1 [KRIBB11]
PBMCs
  Total live cell numbers (proliferation) compared with activated DMSO (in words): did not change proliferation rates
PBMCs; participant 2027
  Fig 6B: total live cells relative to DMSO+CD3/28: 80
PBMCs; participant 2147a
  Fig 6B: total live cells relative to DMSO+CD3/28: 78.71
PBMCs; participant 2147b
  Fig 6B: total live cells relative to DMSO+CD3/28: 84.85
PBMCs; participant 2256
  Fig 6B: total live cells relative to DMSO+CD3/28: 100
PBMCs; participant 2461
  Fig 6B: total live cells relative to DMSO+CD3/28: 133.29
PBMCs; participant 2747
  Fig 6B: total live cells relative to DMSO+CD3/28: 114.29
PBMCs; study participant 150a
  Total number of live cells (Fig 6A): 109.33 % of activated DMSO
PBMCs; study participant 156
  Total number of live cells (Fig 6A): 86.05 % of activated DMSO
PBMCs; study participant 163
  Total number of live cells (Fig 6A): 93.17 % of activated DMSO
PBMCs; study participant 2027
  Total number of live cells (Fig 6A): 77.91 % of activated DMSO
PBMCs; study participant 2147a
  Total number of live cells (Fig 6A): 131.05 % of activated DMSO
PBMCs; study participant 2147b
  Total number of live cells (Fig 6A): 144.41 % of activated DMSO
PBMCs; study participant 2256
  Total number of live cells (Fig 6A): 80.69 % of activated DMSO
PBMCs; study participant 2461
  Total number of live cells (Fig 6A): 93.23 % of activated DMSO
PBMCs; study participant 2747
  Total number of live cells (Fig 6A): 107.08 % of activated DMSO
[1]; 2.5μM, 6 days after αCD3/28 activation, each column one participant
  LLTR HIV transcripts (DMSO αCD3/28 = 100): 71.6 and 44.44 and 38.82 and 82.14 and 98.47
[1]; participant 2027
  Pol: 73.68
  PolyA: 106.67
  TAR: 139.39
  TatRev: 11.11
  LLTR/TAR: 0.5893
  PolyA/LLTR: 1.299
  TatRev/PolyA: 0.1042
[1]; participant 2147a
  Pol: 33.33
  PolyA: 22.8
  TAR: 563.24
  TatRev: 46.99
  LLTR/TAR: 0.1271
  PolyA/LLTR: 0.3184
  TatRev/PolyA: 1.2464
[1]; participant 2256
  Pol: 169.23
  PolyA: 89.76
  TAR: 111.27
  TatRev: 84.19
  LLTR/TAR: 0.8849
  PolyA/LLTR: 0.9116
  TatRev/PolyA: 1.489
[1]; participant 2461
  PolyA: 176.92
  TAR: 67.9
  LLTR/TAR: 0.5717
  PolyA/LLTR: 4.558
[1]; participant 2747
  Pol: 8.97
  PolyA: 19.67
  TAR: 56.38
  TatRev: 30

## C=CCNC1=C2C[C@@H](C)C[C@H](OC)[C@H](O)[C@@H](C)/C=C(\C)[C@H](OC(N)=O)[C@@H](OC)/C=C\C=C(/C)C(=O)NC(=CC1=O)C2=O [tanespimycin]
PBMCs
  Total live cell numbers (proliferation) compared with activated DMSO (in words): significantly lower
[1]; participant 150b
  LLTR/TAR: 1.555
  PolyA/LLTR: 0.0721
  TatRev/PolyA: 1.52
[1]; participant 1379
  LLTR/TAR: 1.931
  PolyA/LLTR: 0
[1]; participant 1713
  LLTR/TAR: 0.63
  PolyA/LLTR: 0.35
[1]; participant 2147b
  LLTR/TAR: 1.469
  PolyA/LLTR: 0
[1]; participant 2256
  LLTR/TAR: 1.634
  PolyA/LLTR: 0.2174
  TatRev/PolyA: 3.43
[1]; participant 2750
  LLTR/TAR: 1.458
  PolyA/LLTR: 1.811
  TatRev/PolyA: 0
[1]; participant 5557
  LLTR/TAR: 1.09
  PolyA/LLTR: 0.1459
  TatRev/PolyA: 0
